Test systems include A549; HCT-116; HOP-62; HOP-92; HT-29; Hs-578T; LOX IMVI; MDA-MB-435; NCI-H460; NCI/ADR-RES; OVCAR-8; RPMI-8226; SF-268; SK-OV-3; SW-620; TK-10; U-251; UACC-257; UO-31; SK-MEL-28.
Common to all, as to experiment: growth of human tumour cells (NCI), 48 h

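48-hour exposure; five concentrations; linearly interpolated endpoints. GI50 marks 50% less growth.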 Activity calls are given as the source filed them. No stated cut-off is given here; in the data, active = GI50 up to about 1.1 µM and inactive = higher. Bounds are passed on as bounds.

In the case of `O=C(O)CN1CCNCCN(CC(=O)O)CCNCC1`, the GI50 in the assay with A549 was 5.57 µM (inactive); in the assay on HCT-116, 4.75 µM (inactive); with HOP-62 it was > 100 µM (inactive); in the assay on HOP-92, 82.4 µM (inactive); with HT-29 it was 13.5 µM (inactive); in the assay with Hs-578T, > 24.1 µM (inactive). Besides, the GI50 in the assay with LOX IMVI was 79.4 µM (inactive); in the assay on MDA-MB-435, 33 µM (inactive); in the assay on NCI-H460, 8.49 µM (inactive); with NCI/ADR-RES it was > 100 µM (inactive); in the assay with OVCAR-8, 42.3 µM (inactive); with RPMI-8226 it was 6.31 µM (inactive). The GI50 is > 100 µM (inactive) in the assay with SF-268; 20.1 µM (inactive) in the assay with SK-OV-3; 4.2 µM (inactive) in the assay on SW-620; > 100 µM (inactive) with TK-10; 9.06 µM (inactive) in the assay with U-251; > 73.3 µM (inactive) in the assay on UACC-257. Further, the GI50 in the assay on UO-31 is > 100 µM (inactive).

Turning to `Cc1cc2nnc(C(N)=O)c(N)c2cc1C`, the GI50 with A549 was > 100 µM (inactive); in the assay on HCT-116, > 100 µM (inactive); in the assay with HOP-62, 39.8 µM (inactive); in the assay with HOP-92, 26.2 µM (inactive); with HT-29 it was > 100 µM (inactive); with Hs-578T, 30.5 µM (inactive). Besides, the GI50 in the assay on LOX IMVI was > 100 µM (inactive); in the assay on MDA-MB-435, > 100 µM (inactive); in the assay on NCI-H460, > 100 µM (inactive); with NCI/ADR-RES, > 100 µM (inactive); with OVCAR-8, 47.8 µM (inactive); in the assay on RPMI-8226, > 100 µM (inactive). For the same compound, the GI50 in the assay on SF-268 was 30.1 µM (inactive); in the assay with SK-OV-3 it was 42.1 µM (inactive); with SW-620, > 100 µM (inactive); in the assay with TK-10 it was > 100 µM (inactive); with U-251, > 100 µM (inactive); with UACC-257, > 100 µM (inactive). In the assay on UO-31, the GI50 was > 100 µM (inactive).

On to `O=C1C(Br)=C(Br)C(=O)c2c(O)ccc(O)c21`, for which the GI50 with A549 was 19.3 µM (inactive); in the assay with HCT-116 it was 3.56 µM (inactive); in the assay with HOP-62 it was 9.38 µM (inactive); in the assay with HOP-92 it was 2.11 µM (inactive); in the assay with HT-29, 3.15 µM (inactive); in the assay with Hs-578T it was 27.1 µM (inactive). Besides, the GI50 with MDA-MB-435 was 3.07 µM (inactive); in the assay with NCI-H460 it was 16.3 µM (inactive); with NCI/ADR-RES, 12.2 µM (inactive); with OVCAR-8 it was 8.83 µM (inactive); in the assay on RPMI-8226 it was 0.721 µM (active); in the assay with SF-268, 16.9 µM (inactive). Further, the GI50 in the assay with SK-MEL-28 is 2.06 µM (inactive); in the assay with SK-OV-3 it was 20 µM (inactive); in the assay with SW-620, 1.33 µM (inactive); in the assay on TK-10, 2.27 µM (inactive); in the assay on U-251, 16.4 µM (inactive); in the assay with UACC-257, 5.43 µM (inactive). Besides, the GI50 with UO-31 is 2.79 µM (inactive).

In the case of `COC(=O)C(NC(=O)CNC(=O)CSc1nnc(COc2ccc(Cl)cc2)n1-c1ccccc1)C(C)C` (centres undefined), the GI50 was 31.3 µM (inactive) with A549; 16.2 µM (inactive) with HCT-116; 26.5 µM (inactive) in the assay with HOP-62; 20.8 µM (inactive) with HOP-92; 17.7 µM (inactive) with HT-29; 22.9 µM (inactive) with Hs-578T. Further, the GI50 is 19.6 µM (inactive) with LOX IMVI; 21.2 µM (inactive) with MDA-MB-435; 18.8 µM (inactive) in the assay on NCI-H460; > 100 µM (inactive) in the assay on NCI/ADR-RES; 20.1 µM (inactive) in the assay with OVCAR-8; 20.4 µM (inactive) with RPMI-8226. Further, the GI50 was 21.3 µM (inactive) with SF-268; 16.7 µM (inactive) in the assay on SK-MEL-28; 20.2 µM (inactive) in the assay on SW-620; 16.9 µM (inactive) with TK-10; 18.3 µM (inactive) with U-251; 18 µM (inactive) in the assay on UACC-257. In addition, in the assay with UO-31, the GI50 was 17.8 µM (inactive).

Take `O=c1cccccc1O` [TROPOLONE]: the GI50 in the assay with A549 was > 100 µM (inactive); with HCT-116, 32 µM (inactive); with HOP-92 it was > 100 µM (inactive); in the assay with HT-29 it was 41.8 µM (inactive); with Hs-578T it was 91.8 µM (inactive); in the assay on LOX IMVI, 34.7 µM (inactive). Also, the GI50 in the assay on MDA-MB-435 is > 100 µM (inactive); with NCI-H460, 26.5 µM (inactive); with NCI/ADR-RES it was 39.6 µM (inactive); with OVCAR-8 it was 32.9 µM (inactive); with RPMI-8226, 86.9 µM (inactive); with SF-268 it was 35.7 µM (inactive). Also, the GI50 in the assay on SK-MEL-28 is > 100 µM (inactive); in the assay on SK-OV-3, > 100 µM (inactive); in the assay on SW-620, 45.5 µM (inactive); with TK-10 it was 83.9 µM (inactive); in the assay on UACC-257 it was > 100 µM (inactive); in the assay on UO-31 it was 80.2 µM (inactive).

Consider `CN(C)Cc1cc(C(=O)/C=C/c2cccc(Cl)c2)cc(CN(C)C)c1O`, for which the GI50 was 11.8 µM (inactive) with A549; 3.21 µM (inactive) with HCT-116; 3.65 µM (inactive) with HOP-62; 4.31 µM (inactive) in the assay with HOP-92; 4.18 µM (inactive) with HT-29; 11.4 µM (inactive) in the assay with Hs-578T. In addition, the GI50 with LOX IMVI was 2.24 µM (inactive); in the assay on MDA-MB-435 it was 3.48 µM (inactive); with NCI-H460, 3.05 µM (inactive); with NCI/ADR-RES it was 18.5 µM (inactive); in the assay with OVCAR-8, 8.55 µM (inactive); in the assay on RPMI-8226, 2.69 µM (inactive). The GI50 in the assay on SF-268 is 6.62 µM (inactive); in the assay with SK-MEL-28, 4.16 µM (inactive); in the assay on SW-620, 4.41 µM (inactive); in the assay on TK-10 it was 9.2 µM (inactive); in the assay on U-251, 2.74 µM (inactive); with UACC-257, 5.56 µM (inactive). Besides, in the assay with UO-31, the GI50 was 5.78 µM (inactive).

As for `Cc1ccc([N+](=O)[O-])cc1S(=O)(=O)Nc1ccc(C2=NN(c3ccc([N+](=O)[O-])cc3[N+](=O)[O-])C(c3cccs3)C2)cc1` (centres undefined), the GI50 in the assay on A549 was 19.5 µM (inactive); in the assay on HCT-116 it was 14.9 µM (inactive); in the assay with HOP-62, 19.2 µM (inactive); in the assay on HOP-92, 16.1 µM (inactive); in the assay on HT-29 it was 25.9 µM (inactive); with Hs-578T it was 23.8 µM (inactive). For the same compound, the GI50 was 18.3 µM (inactive) in the assay on LOX IMVI; 21 µM (inactive) with MDA-MB-435; 17.2 µM (inactive) in the assay with NCI/ADR-RES; 22 µM (inactive) with OVCAR-8; 10.9 µM (inactive) in the assay on RPMI-8226; 16.4 µM (inactive) with SF-268. The GI50 in the assay with SK-MEL-28 is 56.5 µM (inactive); with SK-OV-3 it was 26.1 µM (inactive); in the assay with SW-620, 35.7 µM (inactive); in the assay with TK-10, 30 µM (inactive); with U-251 it was 19.5 µM (inactive); in the assay with UACC-257, 16 µM (inactive). For the same compound, the GI50 in the assay on UO-31 is 23.8 µM (inactive).

In the case of `C[C@@]1(c2ccccc2)O[C@@H]2C[C@H]3[C@@H]4CCC5=CC(=O)C=C[C@]5(C)[C@@]4(F)[C@@H](O)C[C@]3(C)[C@]2(C(=O)CO)O1` [AMCINAFIDE], the GI50 in the assay on A549 is 11.8 µM (inactive); in the assay on HCT-116, 14.6 µM (inactive); in the assay on HOP-62 it was 15.6 µM (inactive); in the assay on HOP-92, 22.3 µM (inactive); with HT-29, 17 µM (inactive); in the assay on Hs-578T, 18.7 µM (inactive). For the same compound, the GI50 in the assay on LOX IMVI is 23.8 µM (inactive); with MDA-MB-435, 18.7 µM (inactive); in the assay with NCI-H460, 14.6 µM (inactive); in the assay with NCI/ADR-RES, 15 µM (inactive); with OVCAR-8 it was 17.5 µM (inactive); in the assay with RPMI-8226 it was < 0.01 µM (active). In addition, the GI50 is 15.1 µM (inactive) in the assay on SF-268; 16.3 µM (inactive) in the assay with SK-MEL-28; 21.9 µM (inactive) in the assay with SW-620; 19.5 µM (inactive) with TK-10; 17.7 µM (inactive) with U-251; 17.6 µM (inactive) in the assay with UACC-257. Further, the GI50 in the assay with UO-31 is 18.1 µM (inactive).

With `Cc1[nH]c(/C=C2\C(=O)Nc3ccccc32)c(C)c1CCC(=O)O` [ORANTINIB], the GI50 was 33.9 µM (inactive) in the assay with A549; 31.1 µM (inactive) with HCT-116; 29.4 µM (inactive) with HOP-62; 21.8 µM (inactive) with HOP-92; 37.9 µM (inactive) with Hs-578T; 28.4 µM (inactive) with LOX IMVI. Further, the GI50 is 36.5 µM (inactive) in the assay with MDA-MB-435; 31 µM (inactive) in the assay with NCI-H460; 37.3 µM (inactive) in the assay on NCI/ADR-RES; 40.7 µM (inactive) in the assay with OVCAR-8; 22.8 µM (inactive) in the assay on RPMI-8226; 34.4 µM (inactive) in the assay on SF-268. The GI50 in the assay with SK-MEL-28 is 31.1 µM (inactive); in the assay with SK-OV-3 it was 30.1 µM (inactive); with SW-620 it was 25.7 µM (inactive); in the assay on TK-10 it was 42.5 µM (inactive); with U-251, 59.4 µM (inactive); in the assay with UACC-257, 23.7 µM (inactive). Moreover, the GI50 in the assay with UO-31 was 32.7 µM (inactive).

For the compound `CCN1C(c2ccccc2)=CC(c2ccccc2)(C(Cl)(Cl)Cl)C=C1c1ccccc1`, the GI50 in the assay on A549 is 32.4 µM (inactive); in the assay on HCT-116 it was 4.66 µM (inactive); in the assay with HOP-62, 18.9 µM (inactive); in the assay with HOP-92, 3.11 µM (inactive); in the assay on HT-29, 3.48 µM (inactive); in the assay with Hs-578T, 25.7 µM (inactive). In addition, the GI50 is 8.45 µM (inactive) with LOX IMVI; 2.74 µM (inactive) with MDA-MB-435; 7.5 µM (inactive) with NCI-H460; 40.1 µM (inactive) in the assay with NCI/ADR-RES; 6.49 µM (inactive) in the assay with OVCAR-8; 2.22 µM (inactive) with RPMI-8226. Besides, the GI50 is 11.5 µM (inactive) with SF-268; 3.92 µM (inactive) with SK-MEL-28; 7.82 µM (inactive) in the assay on SW-620; 17.7 µM (inactive) with TK-10; 6.01 µM (inactive) with U-251; 4.56 µM (inactive) with UACC-257. Also, the GI50 in the assay with UO-31 is 34.6 µM (inactive).

The values above are taken from ChEMBL document CHEMBL1201862, “PubChem BioAssay data set” (2004).
